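GI50 = concentration required for 50% inhibition of growth. TGI is the concentration that stops growth completely.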
Columns and labels:
Experiment in all cases: NCI anticancer screen, dose series, 384-well format
[1] = system: TK-10 renal
[2] = system: CAKI-1 renal
[3] = system: A549 NSCLC
[4] = system: EKVX NSCLC
[5] = system: NCI-H522 lung
[6] = system: T-47D breast
[7] = system: HL-60(TB) leukemia
[8] = system: U251 glioblastoma
[9] = system: MDA-MB-435 melanoma
[10] = system: NCI-H226 lung
[11] = system: HT29 colon
[12] = system: SN12C renal
[13] = system: HCT-116 colon
[14] = system: HCT-15 colon
[15] = system: MALME-3M melanoma
[16] = system: COLO 205 colon
[17] = system: RPMI-8226 leukemia
[18] = system: SF-295 CNS
[19] = system: OVCAR-3 ovarian
[20] = system: HOP-62 NSCLC
[21] = system: HCC-2998 colon
[22] = system: UACC-62 melanoma
[23] = system: HOP-92 NSCLC
[24] = system: DU-145 prostate
[25] = system: MDA-MB-468 breast
[26] = system: SK-OV-3 ovarian
[27] = system: KM12 colon
[28] = system: LOX IMVI melanoma
[29] = system: 786-0 renal
[30] = system: RXF 393 renal
[31] = system: OVCAR-4 ovarian
[32] = system: SNB-75 CNS
[33] = system: UACC-257 melanoma
[34] = system: M14 melanoma
[35] = system: HS 578T breast
[36] = system: SF-539 CNS
[37] = system: NCI-H322M lung
[38] = system: NCI-H23 lung
[39] = system: SK-MEL-28 melanoma
[40] = system: SW-620 colon
[41] = system: ACHN renal
[42] = system: UO-31 renal
[43] = system: PC-3 prostate
[44] = system: BT-549 breast
[45] = system: OVCAR-8 ovarian
[46] = system: IGROV1 ovarian
[47] = system: OVCAR-5 ovarian
[48] = system: K-562 leukemia
[49] = system: MDA-MB-231 breast
[50] = system: NCI/ADR-RES ovarian
[51] = system: SNB-19 CNS
[52] = system: MCF7 breast
[53] = system: SF-268 CNS
[54] = system: MOLT-4 leukemia
[55] = system: A498 renal
[56] = system: NCI-H460 NSCLC
[57] = system: CCRF-CEM leukemia
[58] = system: SK-MEL-5 melanoma

C[C@H]1COCCN1c1cc(C2(S(=O)(=O)C3CC3)CC2)nc(-c2ccc(NC(=S)NCCO)cc2)n1 showed a GI50 [1] of 92.6 nM, a TGI [1] of 900 nM and a GI50 [2] of 17.8 nM. It also gave a TGI [2] of 214 nM, a GI50 [3] of 28.9 nM and a TGI [3] of 1410 nM. For the same compound, the GI50 [4] was 40.2 nM, the TGI [4] was 1570 nM and the GI50 [5] was under 10 nM. The TGI [5] was 6.64 µM, the GI50 [6] was under 10 nM and the TGI [6] was 17.9 nM. It also gave a GI50 [7] of 618 nM, a TGI [7] of 15.2 µM and a GI50 [8] of 57.2 nM. It also gave a TGI [8] of 14.9 µM, a GI50 [9] of 41.5 nM and a TGI [9] of 3.46 µM. It also gave a GI50 [10] of 19.1 nM, a TGI [10] of 101 nM and a GI50 [11] of 79.3 nM. It also gave a TGI [11] of 15.8 µM, a GI50 [12] of 18.4 nM and a TGI [12] of 12.2 µM. It also gave a GI50 [13] of 119 nM, a TGI [13] of 16.5 µM and a GI50 [14] of 126 nM. For the same compound, the TGI [14] was 86.3 µM, the GI50 [15] was under 10 nM and the TGI [15] was 84.3 nM. The GI50 [16] was 19.6 nM, the TGI [16] was 3.34 µM and the GI50 [17] was 12 nM. The TGI [17] was 85.3 nM, the GI50 [18] was 34.4 nM and the TGI [18] was 335 nM. It also gave a GI50 [19] of 38 nM, a TGI [19] of 6.6 µM and a GI50 [20] of 39.1 nM. For the same compound, the TGI [20] was 540 nM, the GI50 [21] was 98.6 nM and the TGI [21] was 18.6 µM. The GI50 [22] was 15 nM, the TGI [22] was 100 nM and the GI50 [23] was 25.7 nM. It also gave a TGI [23] of 601 nM, a GI50 [24] of 59.1 nM and a TGI [24] of 18.8 µM. It also gave a GI50 [25] of under 10 nM, a TGI [25] of 31.9 nM and a GI50 [26] of 20.1 nM. The TGI [26] was 626 nM, the GI50 [27] was 27.8 nM and the TGI [27] was 17.6 µM. The GI50 [28] was 27.6 nM, the TGI [28] was 640 nM and the GI50 [29] was 50.8 nM. For the same compound, the TGI [29] was 12.6 µM, the GI50 [30] was 25.9 nM and the TGI [30] was 310 nM. The GI50 [31] was 31.8 nM, the TGI [31] was 340 nM and the GI50 [32] was under 10 nM. The TGI [32] was 50.5 nM, the GI50 [33] was 46.3 nM and the TGI [33] was 827 nM. The GI50 [34] was 20.7 nM, the TGI [34] was 1830 nM and the GI50 [35] was under 10 nM. For the same compound, the TGI [35] was 35.5 nM, the GI50 [36] was 29.7 nM and the TGI [36] was 598 nM. For the same compound, the GI50 [37] was 27.4 nM, the TGI [37] was 15.5 µM and the GI50 [38] was 83.1 nM. The TGI [38] was 12.5 µM, the GI50 [39] was 26.2 nM and the TGI [39] was 564 nM. It also gave a GI50 [40] of 130 nM, a TGI [40] of 17.8 µM and a GI50 [41] of 55.1 nM. It also gave a TGI [41] of 11.8 µM, a GI50 [42] of 121 nM and a TGI [42] of 14 µM. The GI50 [43] was 16.7 nM, the TGI [43] was 4.39 µM and the GI50 [44] was 16 nM. For the same compound, the TGI [44] was 121 nM, the GI50 [45] was 53.4 nM and the TGI [45] was 12.7 µM. It also gave a GI50 [46] of under 10 nM, a TGI [46] of 41.9 nM and a GI50 [47] of 51.8 nM. It also gave a TGI [47] of 7.11 µM, a GI50 [48] of 41.6 nM and a TGI [48] of 16.1 µM. For the same compound, the GI50 [49] was 34.2 nM, the TGI [49] was over 100 µM and the GI50 [50] was 6.72 µM. It also gave a TGI [50] of over 100 µM, a GI50 [51] of 100 nM and a TGI [51] of 50.2 µM. The GI50 [52] was under 10 nM, the TGI [52] was 5.51 µM and the GI50 [53] was under 10 nM. For the same compound, the TGI [53] was 28.9 nM, the GI50 [54] was under 10 nM and the TGI [54] was 1070 nM. The GI50 [55] was under 10 nM, the TGI [55] was 53.1 nM and the GI50 [56] was under 10 nM. It also gave a TGI [56] of 11.5 µM, a GI50 [57] of 20.6 nM and a TGI [57] of 1630 nM. The GI50 [58] was 11.8 nM and the TGI [58] was 58.5 nM.

— PubChem BioAssay (NCI)
